According to US5166204A, “Isoindole derivatives and salts thereof and antitumor agent comprising the same” (Toyama Chemical Co., Ltd., priority 1989, dated 1992):
Values after ≈ are worked out from the molar mass of the structure shown.

System: HeLa S-3 cells
Experiment: HeLa S-3 cell growth inhibition test
Type: cell-based
Conditions: Homo sapiens, 96 h, read-out: minimum growth inhibition concentration (MIC)
Protocol: (a) HeLa S-3 Cell Growth Inhibition Test
A test compound was appropriately diluted with a liquid medium (a minimum essential medium containing a 10% fecal calf serum). The resulting liquid was poured into each well of a 96-well micro titer plate, in an amount of 0.1 ml/well. Then, HeLa S-3 cells were diluted with the same liquid medium so that the cell concentration became 2×10^4 cells/ml, and the resulting liquid was poured into each well of the above plate in an amount of 0.1 ml/well. The resulting plate was allowed to stand in a CO2 gas incubator of 37° C. for 4 days, to effect incubation. After the incubation, the supernatant liquid in each well was removed and fixation by ethanol was effected for 10 minutes. The fixed cells were tinted with a Giemsa's staining solution to determine the minimum growth inhibition concentration (MIC) of test compound for HeLa S-3 cells.

Question: `Cc1cc2c(c3c1[nH]c1ccc(OC(=O)N4CCOCC4)cc13)C(=O)N(CCN(C)C)C2=O` [compound 50] was tested. Which MIC did it give?
Answer: 3.13 µg/mL (≈ 6.95 µM)

Question: For `Cc1cc2c(c3c1[nH]c1ccc(OC(=O)N4CCC(N5CCCCC5)CC4)cc13)C(=O)N(CCN(C)C)C2=O` [compound 55], which MIC is on record?
Answer: 2.5 µg/mL (≈ 4.7 µM)

Same assay, conditions: Homo sapiens, 96 h; HeLa S-3 cells, 37° C., 4 days, Giemsa's staining; read-out: minimum growth inhibition concentration (MIC)

Question: `CN(C)CCN1C(=O)c2ccc3sc4ccccc4c3c2C1=O` [compound 66] was tested. Which MIC did it give?
Answer: 2.5 µg/mL (≈ 7.71 µM)

Question: Which MIC does the source give for `CCn1c2ccc(OC)cc2c2c3c(ccc21)C(=O)N(CCN(C)C)C3=O` [compound 20] here?
Answer: 1.56 µg/mL (≈ 4.27 µM)

Question: Which MIC does the source give for `COc1ccc2[nH]c3ccc4c(c3c2c1)C(=O)N(CCN1CCN(C)CC1)C4=O` [compound 34] here?
Answer: 3.13 µg/mL (≈ 7.98 µM)

Question: `CN(C)CCN1C(=O)c2c(O)cc3[nH]c4ccc(O)cc4c3c2C1=O` [compound 35] was tested. Which MIC did it give?
Answer: 2 µg/mL (≈ 5.89 µM)

Question: With `COc1ccc2[nH]c3c(C)cc4c(c3c2c1)C(=O)N(CCN1CCOCC1)C4=O` [compound 87] as the compound, how does the MIC read?
Answer: 5 µg/mL (≈ 12.7 µM)

Question: Which MIC does the source give for `CN(C)CCN1C(=O)c2cc(C3CCCC3)c3[nH]c4ccc(O)cc4c3c2C1=O` [compound 72] here?
Answer: 0.16 µg/mL (≈ 0.409 µM)

Question: Which MIC does the source give for `CN(C)CCN1C(=O)c2cc(C(C)(C)C)c3[nH]c4ccc(O)cc4c3c2C1=O` [compound 54] here?
Answer: 0.31 µg/mL (≈ 0.817 µM)

Question: With `CN(C)CCN1C(=O)c2cc(-c3ccccc3)c3[nH]c4ccccc4c3c2C1=O` [compound 7] as the compound, how does the MIC read?
Answer: 0.8 µg/mL (≈ 2.09 µM)

Question: `CSc1cc2c(c3c1[nH]c1ccc(O)cc13)C(=O)N(CCN(C)C)C2=O` [compound 77] was tested. Which MIC did it give?
Answer: 0.63 µg/mL (≈ 1.71 µM)

Question: `C=Cc1cc2c(c3c1[nH]c1ccc(OC)cc13)C(=O)N(CCN(C)C)C2=O` [compound 92] was tested. Which MIC did it give?
Answer: 0.32 µg/mL (≈ 0.881 µM)

Question: With `CCc1cc2[nH]c3ccccc3c2c2c1C(=O)N(CCN(C)C)C2=O` [compound 4] as the compound, how does the MIC read?
Answer: 0.2 µg/mL (≈ 0.596 µM)

Question: How did the MIC turn out when `COc1ccc2c(c1)[nH]c1c(C)cc3c(c12)C(=O)N(CCN(C)C)C3=O` [compound 18] was run?
Answer: 0.8 µg/mL (≈ 2.28 µM)

Question: How did the MIC turn out when `Cc1cc2c(c3c4ccccc4n(C)c13)C(=O)N(CCN(C)C)C2=O` [compound 6] was run?
Answer: 0.8 µg/mL (≈ 2.39 µM)

Question: Which MIC does the source give for `COc1ccc2[nH]c3c(C)cc4c(c3c2c1)C(=O)N(CCN)C4=O` [compound 65] here?
Answer: 0.63 µg/mL (≈ 1.95 µM)

Question: For `CN(C)CCN1C(=O)c2cc3[nH]c4cccc(F)c4c3cc2C1=O` [compound 96], which MIC is on record?
Answer: 6.25 µg/mL (≈ 19.2 µM)

Question: `CN(C)CCN1C(=O)c2ccc3c(c2C1=O)c1cc(Cl)ccc1n3C` [compound 10] was tested. Which MIC did it give?
Answer: 0.8 µg/mL (≈ 2.25 µM)

Question: With `Cc1ccc2[nH]c3ccc4c(c3c2c1)C(=O)N(CCN(C)C)C4=O` [compound 12] as the compound, how does the MIC read?
Answer: 3.13 µg/mL (≈ 9.74 µM)

Question: How did the MIC turn out when `CN(C)CCN1C(=O)c2cc(O)c3[nH]c4ccc(O)cc4c3c2C1=O` [compound 41] was run?
Answer: 0.8 µg/mL (≈ 2.36 µM)

Question: `CCN(CC)CCN1C(=O)c2cc(C)c3sc4ccc(O)cc4c3c2C1=O` [compound 62] was tested. Which MIC did it give?
Answer: 0.2 µg/mL (≈ 0.523 µM)

Question: Which MIC does the source give for `CN(C)CCN1C(=O)c2cc(C3CCCCC3)c3[nH]c4ccc(O)cc4c3c2C1=O` [compound 63] here?
Answer: 1.25 µg/mL (≈ 3.08 µM)

Question: `CCN(C)CCN1C(=O)c2cc(C)c3[nH]c4ccc(O)cc4c3c2C1=O` [compound 81] was tested. Which MIC did it give?
Answer: 0.16 µg/mL (≈ 0.455 µM)

Question: For `Cc1cc2c(c3c1oc1ccccc13)C(=O)N(CCN(C)C)C2=O` [compound 43], which MIC is on record?
Answer: 2.5 µg/mL (≈ 7.76 µM)

Question: Which MIC does the source give for `Cc1c2c(c3c([nH]c4ccccc43)c1C)C(=O)N(CCN(C)C)C2=O` [compound 5] here?
Answer: 0.125 µg/mL (≈ 0.373 µM)

Question: How did the MIC turn out when `Cc1c2c(cc3c1[nH]c1ccccc13)C(=O)N(CCN(C)C)C2=O` [compound 97] was run?
Answer: 3.13 µg/mL (≈ 9.74 µM)

Question: Which MIC does the source give for `Cc1cc2c(c3c1[nH]c1ccc(O)cc13)C(=O)N(CCN1CCN(C)CC1)C2=O` [compound 90] here?
Answer: 1.56 µg/mL (≈ 3.97 µM)

Question: For `Cc1cc2c(c3c1S(=O)(=O)c1ccccc1-3)C(=O)N(CCN(C)C)C2=O` [compound 48], which MIC is on record?
Answer: 2.5 µg/mL (≈ 6.75 µM)

Question: How did the MIC turn out when `CN(C)CCN1C(=O)c2cc(C3(C)CC3)c3[nH]c4ccc(O)cc4c3c2C1=O` [compound 73] was run?
Answer: 0.8 µg/mL (≈ 2.12 µM)

Question: `Cc1cc2c(c3c1[nH]c1ccc(O)cc13)C(=O)N(CCNC(C)C)C2=O` [compound 76] was tested. Which MIC did it give?
Answer: 0.16 µg/mL (≈ 0.455 µM)

Question: `Cc1cc2c(c3c1[nH]c1ccc(O)cc13)C(=O)N(CC[N+](C)(C)C)C2=O` [compound 94] was tested. Which MIC did it give?
Answer: 6.25 µg/mL

Question: For `Cc1cc2c(c3c1sc1ccccc13)C(=O)N(CCN(C)C)C2=O` [compound 47], which MIC is on record?
Answer: 0.2 µg/mL (≈ 0.591 µM)

Question: Which MIC does the source give for `Cc1cc2c(c3c1[nH]c1ccc(O)cc13)C(=O)N(CCN1CCOCC1)C2=O` [compound 88] here?
Answer: 2.5 µg/mL (≈ 6.59 µM)

Question: For `CN(C)CCN1C(=O)c2ccc3[nH]c4ccc(F)cc4c3c2C1=O` [compound 11], which MIC is on record?
Answer: 3.13 µg/mL (≈ 9.62 µM)

Question: `Cc1cc2c(c3c1[nH]c1ccc(O)cc13)C(=O)N(CCN(C(C)C)C(C)C)C2=O` [compound 53] was tested. Which MIC did it give?
Answer: 0.8 µg/mL (≈ 2.03 µM)

Question: For `COc1ccc2c(c1)c1c3c(ccc1n2C(C)=O)C(=O)N(CCN(C)C)C3=O` [compound 21], which MIC is on record?
Answer: 3.13 µg/mL (≈ 8.25 µM)

Question: `CN(C)CCN1C(=O)c2cc(Oc3ccccc3)c3[nH]c4ccc(O)cc4c3c2C1=O` [compound 78] was tested. Which MIC did it give?
Answer: 0.04 µg/mL (≈ 0.0963 µM)

Question: `COCc1cc2c(c3c1[nH]c1ccc(O)cc13)C(=O)N(CCN(C)C)C2=O` [compound 57] was tested. Which MIC did it give?
Answer: 1 µg/mL (≈ 2.72 µM)

Question: For `COc1ccc(Oc2cc3c(c4c2[nH]c2ccc(O)cc24)C(=O)N(CCN(C)C)C3=O)cc1` [compound 85], which MIC is on record?
Answer: 0.08 µg/mL (≈ 0.18 µM)

Question: For `Cc1c2c(c(C)c3c1[nH]c1ccc(O)cc13)C(=O)N(CCN(C)C)C2=O` [compound 100], which MIC is on record?
Answer: 2.5 µg/mL (≈ 7.11 µM)

Question: `CCn1c2ccc(O)cc2c2c3c(ccc21)C(=O)N(CCN(C)C)C3=O` [compound 29] was tested. Which MIC did it give?
Answer: 3.13 µg/mL (≈ 8.91 µM)

Question: For `Cc1cc2c(c3c1[nH]c1ccc(OC(=O)c4ccncc4)cc13)C(=O)N(CCN(C)C)C2=O` [compound 83], which MIC is on record?
Answer: 0.16 µg/mL (≈ 0.362 µM)

Question: How did the MIC turn out when `Cc1cc2[nH]c3ccc(O)cc3c2c2c1C(=O)N(CCN(C)C)C2=O` [compound 25] was run?
Answer: 0.04 µg/mL (≈ 0.119 µM)

Question: Which MIC does the source give for `O=C1c2ccc3[nH]c4ccc(O)cc4c3c2C(=O)N1CCN1CCCCC1` [compound 33] here?
Answer: 3.13 µg/mL (≈ 8.61 µM)

Question: Which MIC does the source give for `CCOc1cc2c(c3c1[nH]c1ccc(O)cc13)C(=O)N(CCN(C)C)C2=O` [compound 80] here?
Answer: 0.08 µg/mL (≈ 0.218 µM)

Question: Which MIC does the source give for `CC(=O)Oc1ccc2[nH]c3c(C)cc4c(c3c2c1)C(=O)N(CCN(C)C)C4=O` [compound 45] here?
Answer: 0.16 µg/mL (≈ 0.422 µM)

Question: Which MIC does the source give for `COc1ccc2[nH]c3c(C4CCC4)cc4c(c3c2c1)C(=O)N(CCN(C)C)C4=O` [compound 58] here?
Answer: 1.25 µg/mL (≈ 3.19 µM)

Question: For `Cc1cc(O)cc2c1[nH]c1ccc3c(c12)C(=O)N(CCN(C)C)C3=O` [compound 46], which MIC is on record?
Answer: 3.13 µg/mL (≈ 9.28 µM)

Question: For `COc1cc2c(c3c1[nH]c1ccc(OCc4ccccc4)cc13)C(=O)N(CCN(C)C)C2=O` [compound 37], which MIC is on record?
Answer: 0.2 µg/mL (≈ 0.451 µM)

Question: With `COc1ccc2[nH]c3c(OC)cc4c(c3c2c1)C(=O)N(CCN(C)C)C4=O` [compound 40] as the compound, how does the MIC read?
Answer: 0.2 µg/mL (≈ 0.544 µM)

Question: Which MIC does the source give for `COc1ccc2[nH]c3cc(OC)c4c(c3c2c1)C(=O)N(CCN(C)C)C4=O` [compound 36] here?
Answer: 0.8 µg/mL (≈ 2.18 µM)

Question: How did the MIC turn out when `Cc1cc2c(c3c1[nH]c1ccc(O)cc13)C(=O)N(CCN(CCO)CCO)C2=O` [compound 91] was run?
Answer: 1.25 µg/mL (≈ 3.15 µM)

Question: For `COc1ccc2[nH]c3c(C)c4c(c(C)c3c2c1)C(=O)N(CCN(C)C)C4=O` [compound 99], which MIC is on record?
Answer: 0.8 µg/mL (≈ 2.19 µM)

Question: Which MIC does the source give for `COc1cc2c(cc1Br)[nH]c1c(CN(C)C)cc3c(c12)C(=O)N(CCN(C)C)C3=O` [compound 93] here?
Answer: 3.2 µg/mL (≈ 6.76 µM)

Question: `COc1ccc2c(c1)c1c3c(ccc1n2C)C(=O)N(CCN(C)C)C3=O` [compound 19] was tested. Which MIC did it give?
Answer: 0.4 µg/mL (≈ 1.14 µM)

Question: With `Cc1cc2c(c3c1[nH]c1ccc(O)cc13)C(=O)N(CCN)C2=O` [compound 68] as the compound, how does the MIC read?
Answer: 0.4 µg/mL (≈ 1.29 µM)

Question: `CC(C)c1cc2c(c3c1[nH]c1ccc(O)cc13)C(=O)N(CCN(C)C)C2=O` [compound 52] was tested. Which MIC did it give?
Answer: 0.4 µg/mL (≈ 1.09 µM)

Question: Which MIC does the source give for `CN(C)CCN1C(=O)c2ccc3[nH]c4cc(Cl)ccc4c3c2C1=O` [compound 8] here?
Answer: 3.13 µg/mL (≈ 9.16 µM)

Question: With `CN(C)CCN1C(=O)c2c(-c3ccncc3)cc3[nH]c4ccc(O)cc4c3c2C1=O` [compound 84] as the compound, how does the MIC read?
Answer: 2.5 µg/mL (≈ 6.24 µM)

Question: `Cc1c2c(c(C)c3c1[nH]c1ccccc13)C(=O)N(CCN(C)C)C2=O` [compound 98] was tested. Which MIC did it give?
Answer: 0.8 µg/mL (≈ 2.39 µM)

Question: With `COc1ccc2c(c1)[nH]c1ccc3c(c12)C(=O)N(CCN(C)C)C3=O` [compound 14] as the compound, how does the MIC read?
Answer: 1.56 µg/mL (≈ 4.62 µM)
